In brackets after ≈: the same amount, converted by molar mass. Where two headings read alike, the source gives them in different places.
Key:
[1] = tested on: S. saprophyticus ATCC 15305; test: MIC broth microdilution (NCCLS); assay type: cell-based, Staphylococcus saprophyticus; details: Staphylococcus saprophyticus, ATCC15305; S. saprophyticus ATCC 15305; read-out: MIC
Outline: (§1)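 NCCLS broth microdilution; inoculum 10^5-10^6 CFU/ml; 2-fold serial dilutions; 35° C, 24 h; A650 plus visual read. Media: MHBCA (S. saprophyticus, E. faecium), MHBCA + 2% laked horse blood (Listeria), HTM (Haemophilus), the last two under 5% CO2.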

E. faecalis ATCC 29212 = test: MIC broth microdilution (NCCLS); assay type: cell-based, Enterococcus faecalis; details: E. faecalis ATCC 29212
MRSA strain Sa248c = test: MIC broth microdilution, antibiotic resistant strain panel; assay type: cell-based, Staphylococcus aureus; details: Staphylococcus aureus; multi-resistant MRSA strain Sa248c; read-out: MIC
Outline: (§2)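 MHBCA, 10^5-10^6 CFU/ml, 2-fold serial dilutions, 24 h at 35° C. Growth read at 650 nm and visually. MIC = lowest concentration with no visible growth.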

A. baumannii ATCC 19606 = test: MIC broth microdilution (NCCLS); assay type: cell-based, Acinetobacter baumannii; details: Acinetobacter baumannii, ATCC19606, read-out: MIC
Outline: (§3)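 Susceptibility by NCCLS microdilution: checked inoculum 10^5-10^6 CFU/ml, 24 h at 35° C, and growth assessed at 650 nm and by eye. Haemophilus was tested in HTM medium and Listeria with laked horse blood, each incubated under 5% CO2.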

E. faecium ATCC 35667 = test: MIC broth microdilution (NCCLS); assay type: cell-based, Enterococcus faecium; details: Enterococcus faecium, ATCC35667, E. faecium ATCC 35667; read-out: MIC
Outline: as §1

S. aureus ATCC 29213 = test: MIC broth microdilution (NCCLS); assay type: cell-based, Staphylococcus aureus; details: Staphylococcus aureus, ATCC29213; S. aureus ATCC 29213; read-out: MIC
[2] = tested on: Y. enterocolytica ATCC 23715; test: MIC broth microdilution (NCCLS); assay type: cell-based, Yersinia enterocolytica; details: Yersinia, ATCC23715, read-out: MIC
Outline: as §3

M. smegmatis ATCC 19420 = test: MIC broth microdilution (NCCLS), fastidious bacteria; assay type: cell-based, Mycobacterium smegmatis; details: Mycolicibacterium smegmatis, ATCC19420, read after 48 hours
E. coli MC4100 = test: MIC broth microdilution (NCCLS); assay type: cell-based; details: Escherichia coli; E. coli MC4100, pathotype Reference
Procedure: (§4) Minimal Inhibitory Concentration (MIC) Determination. Bacteria (primary strain panel, TABLE 1). Susceptibility tests were performed following the recommendations from the National Committee for Clinical Standards (NCCLS). The MICs were determined by a broth microdilution technique using a final volume of 100 μl of cation-adjusted Mueller Hinton Broth (MHBCA) and a bacterial inoculum of 10^5-10^6 Colony Forming Units (CFU)/ml. The inocula were verified and precisely determined by applying 10-μl drops of 10-fold dilutions onto Triptic Soy Agar plates. The CFU were counted after an incubation of 24 h at 35° C. Any experiment showing an inoculum that was more or less than 10^5-10^6 CFU/ml was rejected. Control antibiotics and test compounds were prepared at a concentration equivalent to 2-fold the highest desired final concentration. Compounds were then diluted directly in the 96-well microtiter plates by serial 2-fold dilutions using a multichannel pipette. Microtiter plates were incubated during 24 h at 35° C. and growth was recorded by using a microtiterplate reader at 650 nm as well as by visual observation. The MIC was defined as the lowest concentration of compound yielding no visible growth. […] Fastidious bacteria. The medium used for Listeria monocytogenes, Neisseria meningitidis, and Campylobacter jejuni was MHBCA containing 2% laked horse blood. The medium used for Haemophilus influenzae and Branhamella (Moraxella) catarrhalis was HTM as recommended by the NCCLS. Cultures of these fastidious bacteria were incubated at 35° C. in a 5% CO2 atmosphere. […] The medium used for Bacteroides fragilis was Wilkins Chalgren broth and growth was allowed under an anaerobic atmosphere at 35° C. for 48 hours.

S. typhimurium ATCC14028 = test: MIC broth microdilution (NCCLS); assay type: cell-based, Salmonella typhimurium; details: Salmonella enterica; S. typhimurium ATCC14028; read-out: MIC
Procedure: as §4

[3] = tested on: E. coli d25-ALR-pen14 (O157:H7); test: MIC broth microdilution, E. coli strains; assay type: cell-based; details: Escherichia coli
Procedure: as §4
(§5) Finally, compounds were also tested against populations of various clinical strains (antibiotic resistant strain panel, TABLE 1).

E. coli Ec117c (EIEC) = test: MIC broth microdilution, E. coli strains; assay type: cell-based; details: Escherichia coli, pathotype EIEC
Procedure: as §4, §5

E. coli Ec118c (EIEC) = test: MIC broth microdilution, E. coli strains; assay type: cell-based; details: Escherichia coli, pathotype EIEC
Procedure: as §4, §5

[4] = tested on: E. coli ATCC 35150 (O157:H7); test: MIC broth microdilution, E. coli strains; assay type: cell-based; details: Escherichia coli, ATCC35150
Procedure: as §4, §5

E. coli Ec022c (EIEC) = test: MIC broth microdilution, E. coli strains; assay type: cell-based; details: Escherichia coli, pathotype EIEC
Procedure: as §4, §5

E. coli Ec119c (EIEC) = test: MIC broth microdilution, E. coli strains; assay type: cell-based; details: Escherichia coli, pathotype EIEC
Procedure: as §4, §5

E. coli Ec027c (EIEC) = test: MIC broth microdilution, E. coli strains; assay type: cell-based; details: Escherichia coli, pathotype EIEC
Procedure: as §4, §5

[5] = tested on: E. coli d4-OLR-pen10 (O157:H7); test: MIC broth microdilution, E. coli strains; assay type: cell-based; details: Escherichia coli
Procedure: as §4, §5

[6] = tested on: S. epidermidis ATCC 12228; test: MIC broth microdilution (NCCLS); assay type: cell-based, Staphylococcus epidermidis; details: Staphylococcus epidermidis, ATCC12228; S. epidermidis ATCC 12228; read-out: MIC
Outline: as §3

S. aureus MRSA COL = test: MIC broth microdilution (NCCLS); assay type: cell-based, Staphylococcus aureus; details: S. aureus MRSA COL
Outline: as §2

[7] = Enterococcus faecalis, ATCC29212, read-out: MIC
[8] = Staphylococcus aureus, MRSA, read-out: MIC

SMILES	MIC [1]	MIC (E. faecalis ATCC 29212; [7])	MIC (MRSA strain Sa248c)	MIC (A. baumannii ATCC 19606)	MIC (E. faecium ATCC 35667)	MIC (S. aureus ATCC 29213)	MIC [2]	MIC (M. smegmatis ATCC 19420)	MIC (E. coli MC4100)	MIC (S. typhimurium ATCC14028)	MIC [3]	MIC (E. coli Ec117c (EIEC))	MIC (E. coli Ec118c (EIEC))	MIC [4]	MIC (E. coli Ec022c (EIEC))	MIC (E. coli Ec119c (EIEC))	MIC (E. coli Ec027c (EIEC))	MIC [5]	MIC [6]	MIC (S. aureus MRSA COL; [8])	other results
O=[N+]([O-])c1ccc(C=Cc2nc(Nc3ccc(O)cc3)c3cc(F)ccc3n2)o1 [Compound V, 6-fluoro-2-[2-(5-nitro-2-furyl)vinyl]-4-(p-hydroxyanilino)-quinazoline]	0.015 to 0.03 µg/mL (≈ 0.0382 to 0.0765 µM)	0.03 µg/mL (≈ 0.0765 µM)	≤ 0.06 µg/mL	1 to 2 µg/mL (≈ 2.55 to 5.1 µM)	0.06 µg/mL (≈ 0.153 µM)	0.03 to 0.06 µg/mL (≈ 0.0765 to 0.153 µM)	0.25 µg/mL (≈ 0.637 µM)	0.06 µg/mL (≈ 0.153 µM)	1 µg/mL (≈ 2.55 µM)	1 µg/mL (≈ 2.55 µM)	1 µg/mL (≈ 2.55 µM)	1 µg/mL (≈ 2.55 µM)	1 µg/mL (≈ 2.55 µM)	1 µg/mL (≈ 2.55 µM)	1 µg/mL (≈ 2.55 µM)	2 µg/mL (≈ 5.1 µM)	1 µg/mL (≈ 2.55 µM)	1 µg/mL (≈ 2.55 µM)	0.03 µg/mL (≈ 0.0765 µM)	0.015 µg/mL (≈ 0.0382 µM)	MIC (E. faecalis ATCC 29212; listed as Example I compound V): 0.03 µg/mL (≈ 0.0765 µM)
O=C1CN(/N=C/c2ccc([N+](=O)[O-])o2)C(=O)N1 [Nitrofurantoin]	8 µg/mL (≈ 33.6 µM)	8 to 16 µg/mL (≈ 33.6 to 67.2 µM)	16 µg/mL (≈ 67.2 µM)	128 µg/mL (≈ 537 µM)	64 µg/mL (≈ 269 µM)	16 µg/mL (≈ 67.2 µM)	64 µg/mL (≈ 269 µM)	64 µg/mL (≈ 269 µM)	8 to 16 µg/mL (≈ 33.6 to 67.2 µM)	32 µg/mL (≈ 134 µM)	16 µg/mL (≈ 67.2 µM)	8 to 16 µg/mL (≈ 33.6 to 67.2 µM)	16 µg/mL (≈ 67.2 µM)	2 µg/mL (≈ 8.4 µM)	16 µg/mL (≈ 67.2 µM)	16 µg/mL (≈ 67.2 µM)	16 µg/mL (≈ 67.2 µM)	16 µg/mL (≈ 67.2 µM)	16 µg/mL (≈ 67.2 µM)	16 µg/mL (≈ 67.2 µM)	MIC (S. aureus MRSA COL): 8 to 16 µg/mL
